Source: patent EP0328029A2, “Cholesterol-esterase colour substrate” (BOEHRINGER MANNHEIM GMBH, priority 1988, dated 1989)

Columns and labels:
[1] = test system: Cholesterinesterase (Cholesterinesterhydrolase EC 3.1.1.13); experiment: Cholesterol esterase colour test according to Example 2 (photometric release of resorufin); format: biochemical; details: λ = 571 nm, 25°C, 0,1 M Kalium-Phosphat-Puffer pH 6,8
Experimental: 2 mg Cholesterin-glutarsäureresorufinester werden in 0,5 ml Dioxan und 0,5 ml Thesit® gelöst.
Zur Messung werden 850 µl 0,1 M Kalium-Phosphat-Puffer pH 6,8 und 50 µl der oben beschriebenen Substratlösung in einer Küvette gut durchgemischt. Nach Zugabe von 100 µl Probe (Enzymlösung) wird ΔE/min photometrisch bei λ = 571 nm bestimmt (Temperatur = 25°C).
Bei Auswertung über einen Standard bekannter Cholesterinesteraseaktivität wird die Cholesterinesteraseaktivität der Probe wie folgt berechnet [formula] Eine Berechnung der Cholesterinesteraseaktivität der Probe ist auch nach folgender Formel möglich: [formula] Vges : Gesamtvolumen des Testansatzes [cm³] VProbe : Volumen der Probe [cm³] ε : Extinktionskoeefizient des Chromogens bei 571 nm d : Schichtdicke der Küvette [cm] ΔE/min : Extinktionsänderung pro Minute bei 571 nm
Bei den genannten Reaktionsbedingungen beträgt der Extinktionskoeffizient ε = 60,00·cm² ·µmol⁻¹.
(§1) Zum Vergleich wurde der Cholesterinesterase-Test mit Cholesterinoleat als Substrat durchgeführt (Bergmeyer, Methods of Enzymatic Analysis, 3th.Ed., Vol.II, S. 168) und mit dem Farbtest gemäß Beispiel 2 verglichen und der Korrelationskoeffizient ermittelt. Die Ergebnisse zeigen Tabelle I und Figur 1. TABELLE I

[2] = test system: Cholesterinesterase (Cholesterinesterhydrolase EC 3.1.1.13); experiment: Cholesterol esterase test with cholesterol oleate as substrate (Bergmeyer UV method, comparison); format: biochemical
Source text: Bekannt ist die photometrische Bestimmung im UV. Freigesetztes Cholesterin wird mittels Cholesterinoxidase zu Cholestenon oxidiert, das anhand der Absorptionszunahme bei λ = 240 nm gemessen werden kann (Bergmeyer, Methods of Enzymatic Analysis, 3th.Ed., Vol.II, S.168). Alternativ wird das bei dieser Oxidation gebildete Wasserstoff peroxid durch eine Farb-Reaktion bestimmt (Stähler, Med.Lab. 30, 29 (77)). Diese Methoden sind umständlich und ebenfalls störanfällig.
as §1

## CC(C)CCC[C@@H](C)[C@H]1CC[C@H]2[C@@H]3CC=C4C[C@@H](OC(=O)CCCC(=O)Oc5ccc6nc7ccc(=O)cc-7oc6c5)CC[C@]4(C)[C@H]3CC[C@]12C [Cholesterin-Glutarsäure-Resorufinester, Cholesterin-glutarsäure-resorufinester]
[1]; Konz. 1,0 mg/ml
  ΔE/min: 0,009
[1]; Konz. 1,3 mg/ml
  ΔE/min: 0,013
[1]; Konz. 2,0 mg/ml
  ΔE/min: 0,015
[1]; Konz. 5,0 mg/ml
  ΔE/min: 0,033
[1]; Konz. 10,0 mg/ml
  ΔE/min: 0,071

## CCCCCCCC/C=C\CCCCCCCC(=O)O[C@H]1CC[C@@]2(C)C(=CC[C@H]3[C@@H]4CC[C@H]([C@H](C)CCCC(C)C)[C@@]4(C)CC[C@@H]32)C1 [Cholesterin-Oleat, Cholesterinoleat]
[2]; Konz. 1,0 mg/ml
  ΔE/min: 0,007
[2]; Konz. 1,3 mg/ml
  ΔE/min: 0,011
[2]; Konz. 2,0 mg/ml
  ΔE/min: 0,015
[2]; Konz. 5,0 mg/ml
  ΔE/min: 0,036
[2]; Konz. 6,6 mg/ml
  ΔE/min: 0,045
[2]; Konz. 10,0 mg/ml
  ΔE/min: 0,072
